Assay results as given in paper PMC7615250 (Cell reports, 2023).

How the values were obtained:
NPR-34 = assay: Aequorin-based calcium mobilization assay; format: cell-based, C. elegans; conditions: CHO/mtAEQ/Gα16 cells expressing NPR-34; aequorin luminescence; n ≥ 6
SEB-2 = SEB-2 (Caenorhabditis elegans, UniProt P30650); format: cell-based, C. elegans; conditions: n ≥ 6
Sequence of SEB-2 (P30650 whole entry, looked up): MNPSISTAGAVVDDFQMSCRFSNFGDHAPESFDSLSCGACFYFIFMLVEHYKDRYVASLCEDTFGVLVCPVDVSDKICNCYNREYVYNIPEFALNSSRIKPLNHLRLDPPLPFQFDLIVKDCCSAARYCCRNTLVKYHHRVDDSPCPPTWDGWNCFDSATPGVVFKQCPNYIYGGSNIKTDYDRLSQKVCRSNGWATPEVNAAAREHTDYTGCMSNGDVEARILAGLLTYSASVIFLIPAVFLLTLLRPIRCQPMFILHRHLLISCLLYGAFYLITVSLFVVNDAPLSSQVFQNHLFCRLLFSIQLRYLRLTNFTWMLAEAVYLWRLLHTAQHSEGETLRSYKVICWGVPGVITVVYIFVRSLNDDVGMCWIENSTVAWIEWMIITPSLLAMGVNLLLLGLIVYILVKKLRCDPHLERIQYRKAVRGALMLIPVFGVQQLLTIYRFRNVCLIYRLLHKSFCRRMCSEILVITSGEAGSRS

LDCRKFSFAPACRGIML; C3–C12 (disulfide) [SNET-1]
receptor activation (calcium response) (NPR-34): activate

NRQCLLNAGLSQGCDFSDLLHAQTQARKFMSFAGPamide; C4–C14 (disulfide) [NLP-73]
receptor activation (calcium response) (SEB-2): activate
